Blank lines part the entries; values can stand above or below the molecule they belong to.
What was measured:
[1] = solubility in aqueous media / water; format: physicochemical; conditions: even in the presence of surfactants
[2] = in vivo

conversion of crystalline form in THF/heptane slurry (slurried for two hours in a mixture of THF and heptane in an ice/water bath): convert to Form A
Compound: COc1cc(N2CCN(C3CCN(c4ccc(F)c5cccnc45)CC3)CC2)c2ncccc2c1.O=C(O)CCC(=O)O.O=C(O)CCC(=O)O.O=C(O)CCC(=O)O [Form B, 6-methoxy-8-[4-(1-(5-fluoro)-quinolin-8-yl-piperidin-4-yl)-piperazin-1-yl]-quinoline trisuccinate]

hygroscopicity (believed): substantially non-hygroscopic
conversion of crystalline form in water (upon dispersion in water for a few minutes in ambient conditions): convert to Form D
Compound: COc1cc(N2CCN(C3CCN(c4ccc(F)c5cccnc45)CC3)CC2)c2ncccc2c1.O=C(O)CCC(=O)O.O=C(O)CCC(=O)O.O=C(O)CCC(=O)O [Form A, 6-methoxy-8-[4-(1-(5-fluoro)-quinolin-8-yl-piperidin-4-yl)-piperazin-1-yl]-quinoline trisuccinate]

solubility [1]: ~0.4 µg/mL
Compound: COc1cc(N2CCN(C3CCN(c4ccc(F)c5cccnc45)CC3)CC2)c2ncccc2c1 [free base, 6-methoxy-8-[4-(1-(5-fluoro)-quinolin-8-yl-piperidin-4-yl)-piperazin-1-yl]-quinoline]

Compound: COc1cc(N2CCN(C3CCN(c4ccc(F)c5cccnc45)CC3)CC2)c2ncccc2c1.O=C(O)CCC(=O)O.O=C(O)CCC(=O)O.O=C(O)CCC(=O)O [trisuccinate salt, 6-methoxy-8-[4-(1-(5-fluoro)-quinolin-8-yl-piperidin-4-yl)-piperazin-1-yl]-quinoline trisuccinate]
bioavailability [2]: improved bioavailability over the free base

From patent US20080045510A1, “Succinate salts of 6-methoxy-8-[4-(1-(5-fluoro)-quinolin-8-yl-piperidin-4-yl)-piperazin-1-yl]-quinoline and crystalline forms thereof” (Wyeth, priority 2006, published 2008)
